Source: publication PMC4696747 (PLoS ONE, 2015)

Experiments:
[1] = target: T1, rat lactate dehydrogenase A (rLDHA) (Rattus norvegicus, UniProt P04642); assay: SPR (BIAcore T200), steady-state affinity; kinetic fit gives Kd […]; assay type: binding
T1 construct: gene Ldha; amino acids 1–332 of full-length wild type, untagged, biotinylated

CC(=O)C(=O)O = assay: purified protein; details: NADH

Compound	Kd [1] [µM]	Km (CC(=O)C(=O)O) [µM]
NC(=O)C1=CN([C@@H]2O[C@H](COP(=O)(O)OP(=O)(O)OC[C@H]3O[C@@H](n4cnc5c(N)ncnc54)[C@H](O)[C@@H]3O)[C@@H](O)[C@H]2O)C=CC1 [NADH]	6.4 ± 0.3	
rat lactate dehydrogenase A (rLDHA) (Rattus norvegicus)		530 ± 80
